Laboratory results from article PMC5526870, “Fragment optimization for GPCRs by molecular dynamics free energy calculations: Probing druggable subpockets of the A2A adenosine receptor binding site” (Scientific Reports, 2017).
Read-outs that look alike come from different tables or passages of the source.

Key:
[1] = target: T1, human A2AAR (Homo sapiens, UniProt P29274); details: 95% confidence interval in brackets, ref Lambertucci et al. [22]; cited from earlier work
T1 construct: expressed in transfected cells; host or cells: CHO cells
T1 sequence (P29274 whole entry): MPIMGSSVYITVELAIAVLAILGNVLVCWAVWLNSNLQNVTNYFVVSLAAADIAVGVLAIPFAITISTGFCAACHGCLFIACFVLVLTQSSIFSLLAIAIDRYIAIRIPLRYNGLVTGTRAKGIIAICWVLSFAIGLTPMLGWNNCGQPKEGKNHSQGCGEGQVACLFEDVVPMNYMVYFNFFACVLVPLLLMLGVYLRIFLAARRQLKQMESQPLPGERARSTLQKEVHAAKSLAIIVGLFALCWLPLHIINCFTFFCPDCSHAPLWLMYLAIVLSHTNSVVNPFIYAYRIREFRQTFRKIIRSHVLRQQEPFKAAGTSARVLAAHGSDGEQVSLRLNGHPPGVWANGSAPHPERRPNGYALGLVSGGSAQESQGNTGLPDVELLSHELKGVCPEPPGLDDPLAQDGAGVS

[2] = target: T1, human A2AAR; assay: Radioligand binding assay at the A2AAR for adenine derivatives 1-23 (displacement of [3H]NECA, CHO cells)
Method: Radioligand binding assays for compounds 25–36 were performed as previously described[61] using membrane preparations from Chinese hamster ovary (CHO) or human embryonic kidney (HEK)293 cells stably expressing the human A1, A2A or A3AR. The following radioligands: antagonist [^3H]DPCPX (0.5 nM); antagonist [^3H]ZM241385 (1.0 nM); and agonist [^125I]AB-MECA (0.2 nM) were used for A1, A2A, and A3ARs, respectively. Binding parameters were calculated using Prism 6 software (GraphPAD, San Diego, CA, USA). IC50 values obtained from competition curves were converted to Ki values using the Cheng-Prusoff equation. Data were expressed as mean ± standard error. The radioligand binding assays for compounds 18, 20, 21, and 23 were performed as previously described. Each Ki value was determined from at least three independent experiments.
Supplementary Table S1. Binding data for compounds 1-23. […]
aKi value from Lambertucci et al.1 bKi value from Volpini et al.2 cDisplacement of specific [3H]NECA binding at human A2AAR expressed in CHO cells measured in this work.
Data is expressed as geometric means with 95% confidence limits (n=3-6). […]

[3] = target: T1, human A2AAR; assay: Functional assay: inhibition of NECA-induced cAMP production (GloSensor) in CHO cells; assay type: cell-based; details: against 1 µM NECA, CHO cells expressing human A2AAR
Method: CHO cells, stably transfected with the human A2AAR and transiently with firefly luciferase biosensor, were grown adherently and maintained in Dulbecco’s Modified Eagles Medium with nutrient mixture F12 (DMEM/F12 with phenol red), supplemented with 10% FBS (Fetal Bovine Serum), 100 U/mL penicillin, 100 µg/mL streptomycin, 2.5µg/mL amphotericin, 1 mM Sodium pyruvate, and 0.1 mg/mL Geneticin (G418) at 37 °C, and aerated with 5% CO2: 95% O2. Cells were harvested in CO2 independent media and counted in a Neobauer chamber. The desiderate cell number was incubated in equilibration medium containing a 3% v/v GloSensor cAMP reagent stock solution, 10% FBS and 87% CO2 independent medium. After 2 hours of incubation cells were dispensed in wells of 384 well plate and when a steady-state basal signal was obtained, different concentrations of antagonists were added. After 10 min, 1 µM of 5′-N-ethylcarboxamidoadenosine (NECA), the reference agonist, was injected. Responses were expressed as percentage of the Maximal Relative Luminescence Units (RLU). Inhibition-response curves were fitted by a non-linear regression using a Prism 4.0 program (GraphPad Software, San Diego, CA, USA).

| SMILES | Ki [1] [nM] | also measured |
| --- | --- | --- |
| Cn1cnc2ncnc(N)c21 [Compound 1] | > 100000 | – |
| Cn1c(Br)nc2c(N)ncnc21 [Compound 3] | – | experimental improvement in binding free energy, compound 3 versus compound 2 ([2]; C8-bromine addition): 2.4 kcal/mol; fold increase in affinity compared to compound 2 ([2]; C8-bromine versus unsubstituted compound 2): 58 fold; experimental improvement of binding affinity, compound 3 versus compound 4 ([2]; addition of N9-methyl group): 2.0 kcal/mol |
| CCn1c(Br)nc2c(N)ncnc21 [Compound 5] | 52 | inhibition of A2AAR mediated cAMP production [3]: close to completely inhibit the agonist effect of 1 µM NECA |
| Nc1ncnc2c1nc(Br)n2CCO [Compound 6] | 620 | – |
| CCCn1c(Br)nc2c(N)ncnc21 [Compound 7] | 300 | – |
| CC(C)Cn1c(Br)nc2c(N)ncnc21 [Compound 8] | 6000 | – |
| CCn1cnc2c(N)ncnc21 [Compound 9] | 2200 | – |
| Nc1ncnc2c1ncn2CCO [Compound 10] | 11000 | – |
| CC(C)Cn1cnc2c(N)ncnc21 [Compound 11] | > 100000 | – |
| Nc1ncnc2c1ncn2CCCO [Compound 12] | 3900 | – |
| CCCn1cnc2c(N)ncnc21 [Compound 13] | 9600 | – |
| Nc1ncnc2c1nc(Br)n2C1CCCC1 [Compound 14] | 1900 | – |
| Nc1ncnc2c1ncn2C1CCCC1 [Compound 15] | 1800 | – |
| C=CCCn1cnc2c(N)ncnc21 [Compound 17] | 8500 | – |
| CCn1c(C)nc2c(N)ncnc21 [Compound 18] | – | fold increase of binding affinity compared to compound 9 ([2]; C8-methyl substituent): 10 fold; Ki ([2]; displacement of specific [3H]NECA binding at human A2AAR expressed in CHO cells, measured in this work): 218 ± 61 nM |
